The values below come from US20210000750A1, “ENGINEERED NANOVESICLES AS CHECKPOINT BLOCKADE FOR CANCER IMMUNOTHERAPY” (NORTH CAROLINA STATE UNIVERSITY, priority 2018, published 2021).

Series [1] deals with B16F10 melanoma tumor. The experiment in a line: In vivo anti-tumor efficacy study of NVs. Further details: species or system C57BL/6 mice. As to conditions: seven-group study, every 3 days for five cycles. The method, then: Female C57BL/6 mice were purchased from Jackson Lab (USA). All mouse studies were performed in the context of an animal protocol approved by the Institutional Animal Care and Use Committee at North Carolina State University and University of North Carolina at Chapel Hill. Mice were weighed and randomly divided into different groups. 5 d after 1×10^6 B16F10 tumor cells subcutaneously transplanted into the abdomen of mice (the tumor reaches 40-50 mm^3), PBS, Free nanovesicles (25 mg/kg), PD-1 nanovesicles (25 mg/kg), 1-MT (2.5 mg/kg), 1-MT loaded PD-1 nanovesicles (25 mg/kg), anyi-PD-L1 antibody (2 mg/kg) were administered into mice by tail-vein injection. Tumor incidences were monitored by physical examination and sizes were also measured by digital caliper over time. Tumors were measured by using a vernier calipers and the volume (V) was calculated to be V=d^2×D/2, where d is the shortest and the D is longest diameter of the tumor in mm respectively. To assess potential toxicities, mice were monitored daily for weight loss. For survival assays, the experiments were performed separately.
Bioluminescence images were collected with a Xenogen IVIS Spectrum Imaging System. Living Image software (Xenogen) was used to acquire the data 10 min after intraperitoneal injection of d-luciferin (Pierce) in DPBS (15 mg/mL) into animals (10 μL/g of body weight).

The subject of series [2] is B16F10 melanoma residual tumor. Description: In vivo anti-tumor efficacy, incomplete-tumor-resection model. More on the design: species or system C57BL/6 mice. The conditions noted are these: five-group cyclophosphamide study. The source says:
(§1) B16F10 luciferase-tagged B16F10 (1×10^6) melanoma tumor cells were transplanted into the right flank of C57BL/6 mice. Eight days after tumor inoculation, the tumors volume reach around ˜150 mm^3. These tumors were then resected, leaving about 15 mm^3 (10%) tumor volume to mimic the residual tumors in the surgical bed. Briefly, animals were anesthetized in an induction chamber using isoflurane (up to 5% for induction; 1-3% for maintenance), and anaesthesia was maintained via a nose cone. The tumor area was clipped and aseptically prepped. Sterile instruments were used to remove approximately 90% of the tumor. The wound was closed using an Autoclip wound closing system. The mice were randomly divided into several groups of eight mice (n=8) as indicated. The mice firstly were intravenously injected with different treatment formulations: PBS, free platelets […], PD-1 platelets (˜2×10^8), cyclophosphamide (20 mg/kg), cyclophosphamide loaded free platelets (˜2×10^8) or cyclophosphamide loaded PD-1 platelets (˜2×10^8). Immediately after the injection, the surgery was carried out within 10 min one mouse by one mouse. The tumor burden was monitored via the bioluminescence of the cancer cells.

Series [3] concerns Tregs. It is filed as in vivo, C57BL/6 mice. As to conditions: five-group cyclophosphamide study.
For series [4] the following is noted: five-group cyclophosphamide study.
Text: as §1

The subject of series [5] is CD8^+ TILs. It is filed as in vivo, C57BL/6 mice. As to conditions: five-group cyclophosphamide study. As for the experimental part: Tumors were dissected from the mice and snap frozen in optimal cutting medium (O.C.T.). Several micrometer sections were cut using a cryotome and mounted on slides. The frozen tumor sections were incubated in PBS for 15 min to remove the embedding medium. The specimens were blocked with the buffer containing 3% BSA. Subsequently, the specimens incubated with CD4 and CD8 primary antibodies (1:50 in 3% BSA) overnight and then washed three times with PBS for 5 min each. After that the specimens were incubated with TRITC secondary antibody (KPL) diluted in 3% BSA at room temperature in the dark for 1 h. Finally, the nucleus was stained with DAPI, and the tissue was washed three times with PBS for 5 min each. Confocal microscopy was performed on a FLUO-VIEW laser scanning confocal microscope […] in sequential scanning mode using a 40×objective.

SMILES strings stand for the structures.

Turning to `Cn1cc(C[C@H](N)C(=O)O)c2ccccc21` [1-MT, 1-methyl-tryptophan], the “suppression of tumor growth” value in series [1] is recorded as “limited suppression of tumor growth”.
Regarding `O=P1(N(CCCl)CCCl)NCCCO1` (centres unmarked) [cyclophosphamide], in series [2], the tumor progression entry is “limited results”. For the same compound, in series [3], the “Tregs within the tumor” value is “selectively depleted Tregs”. Besides, the “hair growth and weight loss” value in series [4] is “delayed hair growth in the abdomen and slighted weight loss”. Further, the “frequency of Ki67+ T cells” value in series [5] is given as “increased the frequency”.
